Article PMC7893915, “Assessing cross-resistance within the pyrethroids in terms of their interactions with key cytochrome P450 enzymes and resistance in vector populations” (Parasites & Vectors, 2021)
“Also recorded” adds a separate entry of the source. Like-named read-outs stand apart in the source and are kept apart here.

Experiments:
[1] = test system: CYP6P9a; settings: read-out: IC50 CYP6P9a, inhibition of diethoxyfluorescein metabolism, cited from earlier work
[2] = test system: CYP6P3; settings: cited from earlier work
[3] = test system: CYP6P2; settings: read-out: IC50 CYP6P2, inhibition of diethoxyfluorescein metabolism, cited from earlier work
[4] = test system: Gambiae Complex; settings: WHO Bioassay 1998, cited from earlier work
[5] = test system: CYP6M2, CYP6P3 and CYP6P9a; experiment: Pyrethroid metabolism (insecticide depletion), across CYP6M2, CYP6P3 and CYP6P9a; type: in vitro ADME, Anopheles gambiae and An. funestus; settings: for vulnerability for metabolic attack by the three enzymes, rank in words: CYP6P3, CYP6M2 and CYP6P9a, among the six pyrethroids
Excerpt: In this study, the half maximal inhibitory concentration (IC50), which provides a value for inhibition of each P450 by each pyrethroid (also referred to as ‘binding affinity’), and the percentage depletion, which gives a value for metabolism of each pyrethroid by each P450 (also referred to as vulnerability to metabolic attack), were both included as parameters to establish a P450s structural activity relationship model. This model was used to understand both the chemistry of the pyrethroids and the interaction with mosquito P450s that function as monooxygenases in metabolic resistance, to predict cross-resistance liabilities in vivo. […] A low percentage depletion indicates low metabolism of the pyrethroid, which means that it may be less vulnerable to resistance mediated by P450s.
The values for percentage depletion (metabolism) of each pyrethroid by three of the enzymes CYP6M2, CYP6P3 and CYP6P9a, which were expressed in a single plasmid construct, were also extracted from the same sources and used for the comparative analysis.

[6] = test system: Anopheles arabiensis; settings: Sudan, WHO Bioassay 1998, cited from earlier work
[7] = test system: Anopheles sinensis; design: method as in PMID 24159535; settings: resistance ratios using LC50 values from a susceptible strain; most susceptible to bifenthrin, cyfluthrin and etofenprox, in that order; ref [55]; cited from earlier work
[8] = test system: CYP6M2; settings: read-out: IC50 CYP6M2, inhibition of diethoxyfluorescein metabolism, cited from earlier work
[9] = biological target: T1, CYP6Z2 (Anopheles gambiae, UniProt Q7PNB5); experiment: Inhibition screening of pyrethroids, diethoxyfluorescein, CYP6Z2; type: biochemical
T1 sequence (Q7PNB5 1-492): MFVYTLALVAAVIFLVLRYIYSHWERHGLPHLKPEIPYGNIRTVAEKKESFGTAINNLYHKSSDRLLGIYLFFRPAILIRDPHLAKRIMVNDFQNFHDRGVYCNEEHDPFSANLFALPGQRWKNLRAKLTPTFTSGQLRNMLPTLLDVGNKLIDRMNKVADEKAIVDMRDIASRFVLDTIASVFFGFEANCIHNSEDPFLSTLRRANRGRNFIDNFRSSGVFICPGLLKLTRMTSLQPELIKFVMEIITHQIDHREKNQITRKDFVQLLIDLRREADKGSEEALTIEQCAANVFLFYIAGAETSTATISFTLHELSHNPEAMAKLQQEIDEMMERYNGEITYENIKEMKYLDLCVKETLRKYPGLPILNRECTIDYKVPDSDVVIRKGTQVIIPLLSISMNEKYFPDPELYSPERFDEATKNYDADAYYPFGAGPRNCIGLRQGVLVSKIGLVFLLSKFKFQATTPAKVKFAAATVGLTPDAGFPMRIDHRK
T1 sequence (Q86QH5 1-679 partner): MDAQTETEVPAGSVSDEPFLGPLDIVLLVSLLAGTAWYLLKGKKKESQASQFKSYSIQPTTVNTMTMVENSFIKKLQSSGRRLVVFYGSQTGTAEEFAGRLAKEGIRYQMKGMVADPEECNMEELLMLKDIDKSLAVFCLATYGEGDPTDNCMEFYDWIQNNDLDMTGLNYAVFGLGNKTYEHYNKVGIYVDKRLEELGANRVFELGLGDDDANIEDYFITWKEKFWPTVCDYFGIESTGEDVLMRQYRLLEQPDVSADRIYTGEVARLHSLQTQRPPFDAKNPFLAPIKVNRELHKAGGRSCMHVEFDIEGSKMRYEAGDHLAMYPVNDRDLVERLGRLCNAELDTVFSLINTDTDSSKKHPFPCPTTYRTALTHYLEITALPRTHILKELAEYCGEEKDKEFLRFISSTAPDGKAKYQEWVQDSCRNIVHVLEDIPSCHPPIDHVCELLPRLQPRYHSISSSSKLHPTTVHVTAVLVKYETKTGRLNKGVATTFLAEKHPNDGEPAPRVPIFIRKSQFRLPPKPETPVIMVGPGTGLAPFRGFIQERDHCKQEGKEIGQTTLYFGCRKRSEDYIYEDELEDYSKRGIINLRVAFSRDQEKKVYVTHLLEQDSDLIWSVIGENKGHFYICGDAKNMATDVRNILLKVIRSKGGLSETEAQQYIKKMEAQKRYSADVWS

[10] = footnote a, ref Yunta et al. 2016[8]
[11] = ID 100045, F0, larval collection, 7/2010-12/2010, Ahero Division, Kenya, ref Ochomo E et al. Med Vet Entomol. 2013;27(2):156-64
[12] = ID 100117, F1, house resting indoors, 4/2010, VK2, Burkina Faso, ref Kwiatkowska RM et al. Gene. 2013;519(1):98-106
[13] = ID 100127, F1, house resting indoors, 4/2010, VK6, Burkina Faso, ref Kwiatkowska RM et al. Gene. 2013;519(1):98-106
[14] = ID 100160, F0, larval collection, 10/2008-5/2009, Nkolondom, Cameroon, ref Nwane P et al. Parasites Vectors. 2013;6
[15] = ID 200047, F1, larval collection, 9/2007-11/2007, Elmaygoma, ref Seidahmed OME et al. Eastern Mediterranean Health Journal. 2012;18(7):769-76
[16] = ID 100156, F0, larval collection, 5/2009-4/2010, Chano, Ethiopia, ref Massebo F et al. Parasites Vectors. 2013;6
[17] = mean ± SD across CYP6M2, CYP6P3, CYP6P9a
[18] = footnote b, ref Yunta et al. 2019[10]
[19] = read-out: IC50 CYP6P3, inhibition of diethoxyfluorescein metabolism, footnote b, ref Yunta et al. 2019[10]

SMILES | IC50 [1, 10] | IC50 [3, 10] | mortality [4, 11] | mortality [4, 12] | mortality [4, 13] | mortality [4, 14] | vulnerability for metabolic attack by the three enzymes, rank in words [5] | mortality [6, 15] | susceptibility of larvae, rank in words [7] | IC50 [8, 10] | mortality [4, 16] | % Insecticide depletion Mean across P450s [5, 17] | IC50 [1, 18] | IC50 [2, 19] | IC50 [3, 18] | IC50 [9] | IC50 [8, 18] | further results
CC1(C)C(C=C(Cl)Cl)C1C(=O)OCc1cccc(Oc2ccccc2)c1 (stereo not drawn) [Permethrin, permethrin] | 5.7 µM | 8.6 µM | 91.97 | 4.1 | 3 | 95 | most vulnerable | 96 | least susceptible | 8.1 µM |  |  |  |  |  |  |  | IC50 [2]: 6.8 µM; % Insecticide depletion Mean across P450s ([5]; Anopheles gambiae and An. funestus): 82.1 ± 21.3%
CC1(C)[C@H](C(=O)O[C@H](C#N)c2cccc(Oc3ccccc3)c2)[C@@H]1C=C(Br)Br [Deltamethrin, deltamethrin] | 2.6 µM | 5 µM | 92.31 | 37.2 | 18.8 | 95 |  | 99.5 |  | 4.2 µM | 47 | 83.5 ± 24.2% |  |  |  |  |  | IC50 ([2]; read-out: IC50 CYP6P3, inhibition of diethoxyfluorescein metabolism, footnote a, ref Yunta et al. 2016[8]): 3.2 µM; mortality ([6]; F0, larval collection, 10/2009-11/2009, El Managil, ref Abdalla H et al. Parasites Vectors. 2014;7:213): 92; mortality ([6]; F0, larval collection, 10/2009-11/2009, Rufaa, ref Abdalla H et al. Parasites Vectors. 2014;7:213): 94; mortality ([6]; F0, larval collection, 10/2009-11/2009, Wad El Hadad, ref Abdalla H et al. Parasites Vectors. 2014;7:213): 94; mortality ([6]; F0, larval collection, 10/2010-11/2010, Wad El Hadad, ref Abdalla H et al. Parasites Vectors. 2014;7:213): 71; mortality ([6]; F0, larval collection, 10/2010-11/2010, Wad Medani, ref Abdalla H et al. Parasites Vectors. 2014;7:213): 80
Cc1c(COC(=O)[C@@H]2[C@H](/C=C(\Cl)C(F)(F)F)C2(C)C)cccc1-c1ccccc1 (racemic) [Bifenthrin, bifenthrin] |  |  |  |  |  |  | lowest vulnerability |  | most susceptible |  |  | 56.3% | 8.5 µM | 3.5 µM | 10.7 µM | 20.7 µM | 5.6 µM | 
CC1(C)[C@H](C(=O)O[C@H](C#N)c2cccc(Oc3ccccc3)c2)[C@@H]1/C=C(\Cl)C(F)(F)F (racemic) [λ-Cyhalothrin, λ-cyhalothrin] |  |  |  |  | 7.3 |  |  | 98.9 |  |  | 56 | 66.6 ± 17.0% | 3.7 µM | 9.6 µM | 4.8 µM | 18.6 µM | 6.6 µM | 
CCOc1ccc(C(C)(C)COCc2cccc(Oc3ccccc3)c2)cc1 [Etofenprox, etofenprox] |  |  |  |  |  |  | most vulnerable |  | most susceptible |  |  | 89.0 ± 17.5% | 8.1 µM | 8.3 µM | 4.7 µM | 2.8 µM | 12 µM | metabolism in words ([5]; by CYP6P3, CYP6M2 and CYP6P9a): strongly metabolised; also recorded: most depleted
